Assay results published in ChEMBL document CHEMBL5500342, “Rational molecular design converting fascaplysin derivatives to potent broad-spectrum inhibitors against bacterial pathogens via targeting FtsZ” (Eur J Med Chem, 2024).
Values after ≈ are worked out from the molar mass of the structure shown.

Tests used:
Streptococcus pneumoniae = assay: Antibacterial activity against Streptococcus pneumoniae ATCC49619 assessed as inhibition of bacterial growth incubated for 18 hrs by CLSI protocol based microbroth dilution method; type: functional
Salmonella enteritidis = assay: Antibacterial activity against Salmonella enteritidis BNCC281091 assessed as inhibition of bacterial growth incubated for 18 hrs by CLSI protocol based microbroth dilution method; type: functional, Salmonella enterica subsp. enterica serovar Enteritidis; settings: Salmonella enterica
Escherichia coli [1] = assay: Antibacterial activity against penicillin-susceptible Escherichia coli ATCC25922 assessed as inhibition of bacterial growth incubated for 18 hrs by CLSI protocol based microbroth dilution method; type: functional
Bacillus subtilis = assay: Antibacterial activity against Bacillus subtilis BNCC336690 assessed as inhibition of bacterial growth incubated for 18 hrs by CLSI protocol based microbroth dilution method; type: functional
Staphylococcus aureus [2] = assay: Antibacterial activity against methicillin-resistant Staphylococcus aureus ATCC43300 assessed as inhibition of bacterial growth incubated for 18 hrs by CLSI protocol based microbroth dilution method; type: functional
Pseudomonas aeruginosa = assay: Antibacterial activity against Pseudomonas aeruginosa BNCC337940 assessed as inhibition of bacterial growth incubated for 18 hrs by CLSI protocol based microbroth dilution method; type: functional
Staphylococcus aureus [3] = assay: Antibacterial activity against methicillin-resistant Staphylococcus aureus ATCC43300; type: functional
Escherichia coli [4] = assay: Antibacterial activity against penicillin-susceptible Escherichia coli ATCC25922; type: functional
Staphylococcus aureus [5] = assay: Bactericidal activity against methicillin-resistant Staphylococcus aureus ATCC43300 incubated for 24 hrs by CLSI protocol based microbroth dilution method; type: functional
Escherichia coli [6] = assay: Bactericidal activity against penicillin-susceptible Escherichia coli ATCC25922 incubated for 24 hrs by CLSI protocol based microbroth dilution method; type: functional
Staphylococcus aureus [7] = assay: Selectivity ratio of MBC for bactericidal activity against methicillin-resistant Staphylococcus aureus ATCC43300 to MIC for antibacterial activity against methicillin-resistant Staphylococcus aureus ATCC43300; type: functional
[8] = Selectivity ratio of MBC for bactericidal activity against penicillin-susceptible Escherichia coli ATCC25922 to MIC for antibacterial activity against penicillin-susceptible Escherichia coli ATCC25922; type: functional

Row | SMILES | MIC (Streptococcus pneumoniae) | MIC (Salmonella enteritidis) | MIC (Escherichia coli [1]) | MIC (Bacillus subtilis) | MIC (Staphylococcus aureus [2]) | MIC (Pseudomonas aeruginosa) | MIC (Staphylococcus aureus [3]) | MIC (Escherichia coli [4]) | MBC (Staphylococcus aureus [5]) | MBC (Escherichia coli [6]) | Selectivity ratio (Staphylococcus aureus [7]) | Selectivity ratio [8]
1 | Cc1ccc(-c2ccc3[nH]c4c5[n+](ccc4c3c2)-c2ccccc2C5=O)cc1C.[Cl-] | 0.78 µg/mL | > 200 µg/mL | > 200 µg/mL | 0.195 µg/mL | 6.25 µg/mL | > 200 µg/mL | – | – | – | – | – | –
2 | O=C1c2ccccc2-[n+]2ccc3c([nH]c4ccc(-c5ccc(F)cc5)cc43)c21.[Cl-] | 0.195 µg/mL | > 200 µg/mL | – | 0.195 µg/mL | – | > 200 µg/mL | 1.56 µg/mL | 6.25 µg/mL | – | – | – | –
3 | Cc1ccc(-c2ccc3[nH]c4c5[n+](ccc4c3c2)-c2ccccc2C5=O)cc1.[Cl-] | 0.195 µg/mL | > 200 µg/mL | – | 0.195 µg/mL | – | > 200 µg/mL | 0.39 µg/mL | 12.5 µg/mL | – | – | – | –
4 | COc1cccc(-c2ccc3[nH]c4c5[n+](ccc4c3c2)-c2ccccc2C5=O)c1.[Cl-] | 0.39 µg/mL | > 200 µg/mL | – | 0.195 µg/mL | – | > 200 µg/mL | 0.39 µg/mL | 12.5 µg/mL | – | – | – | –
5 | O=C1c2ccccc2-[n+]2ccc3c([nH]c4ccc(-c5ccccc5)cc43)c21.[Cl-] | 0.195 µg/mL | > 200 µg/mL | – | 0.195 µg/mL | – | 200 µg/mL | 0.78 µg/mL | 3.12 µg/mL | – | – | – | –
6 | CN[C@H](CC(C)C)C(=O)N[C@H]1C(=O)N[C@@H](CC(N)=O)C(=O)N[C@H]2C(=O)N[C@H]3C(=O)N[C@H](C(=O)N[C@H](C(=O)O)c4cc(O)cc(O)c4-c4cc3ccc4O)[C@H](O)c3ccc(c(Cl)c3)Oc3cc2cc(c3O[C@@H]2O[C@H](CO)[C@@H](O)[C@H](O)[C@H]2O[C@H]2C[C@](C)(N)[C@H](O)[C@H](C)O2)Oc2ccc(cc2Cl)[C@H]1O [VANCOMYCIN] | 1.56 µg/mL (≈ 1.08 µM) | – | – | 0.39 µg/mL (≈ 0.269 µM) | – | – | – | – | 1 µg/mL (≈ 0.69 µM) | 3.12 µg/mL (≈ 2.16 µM) | – | –
7 | O=C1c2ccccc2-[n+]2ccc3c([nH]c4ccc(-c5cccc(Cl)c5)cc43)c21.[Cl-] | 0.195 µg/mL | > 200 µg/mL | 25 µg/mL | 0.195 µg/mL | 0.39 µg/mL | > 200 µg/mL | – | – | – | – | – | –
8 | CCCCc1ccc(-c2ccc3[nH]c4c5[n+](ccc4c3c2)-c2ccccc2C5=O)cc1.[Cl-] | 0.78 µg/mL | > 200 µg/mL | > 200 µg/mL | 1.56 µg/mL | 6.25 µg/mL | > 200 µg/mL | – | – | – | – | – | –
9 | O=C1c2ccccc2-[n+]2ccc3c([nH]c4ccc(-c5cc(F)cc(F)c5)cc43)c21.[Cl-] | 0.195 µg/mL | > 200 µg/mL | 12.5 µg/mL | 0.195 µg/mL | 3.12 µg/mL | > 200 µg/mL | – | – | – | – | – | –
10 | O=C1c2ccccc2-[n+]2ccc3c([nH]c4ccc(-c5ccc(C(F)(F)F)cc5)cc43)c21.[Cl-] | 1.56 µg/mL | > 200 µg/mL | – | 0.195 µg/mL | – | > 200 µg/mL | 0.39 µg/mL | 1.56 µg/mL | – | – | – | –
11 | O=C1c2ccccc2-[n+]2ccc3c([nH]c4ccc(-c5ccc(Cl)cc5)cc43)c21.[Cl-] | 0.39 µg/mL | > 200 µg/mL | > 200 µg/mL | 0.195 µg/mL | 1.56 µg/mL | > 200 µg/mL | – | – | – | – | – | –
12 | CCCc1ccc(-c2ccc3[nH]c4c5[n+](ccc4c3c2)-c2ccccc2C5=O)cc1.[Cl-] | 0.195 µg/mL | > 200 µg/mL | > 200 µg/mL | 0.195 µg/mL | 1.56 µg/mL | > 200 µg/mL | – | – | – | – | – | –
13 | O=C1c2ccccc2-[n+]2ccc3c([nH]c4ccccc43)c21 [FASCAPLYSIN] | – | – | 12.5 µg/mL | – | 0.78 µg/mL | – | – | – | 1.56 µg/mL | 25 µg/mL | 2 | 2
14 | CCc1ccc(-c2ccc3[nH]c4c5[n+](ccc4c3c2)-c2ccccc2C5=O)cc1.[Cl-] | 0.195 µg/mL | > 200 µg/mL | > 200 µg/mL | 0.195 µg/mL | 1.56 µg/mL | > 200 µg/mL | – | – | – | – | – | –
15 | Cc1cccc(-c2ccc3[nH]c4c5[n+](ccc4c3c2)-c2ccccc2C5=O)c1.[Cl-] | 0.195 µg/mL | > 200 µg/mL | > 200 µg/mL | 0.195 µg/mL | 0.39 µg/mL | > 200 µg/mL | – | – | – | – | – | –
16 | O=C1c2ccccc2-[n+]2ccc3c([nH]c4ccc(-c5ccc(F)cc5F)cc43)c21.[Cl-] | 0.195 µg/mL | > 200 µg/mL | – | 0.195 µg/mL | – | > 200 µg/mL | 0.195 µg/mL | 1.56 µg/mL | – | – | – | –
17 | COc1ccc(-c2ccc3[nH]c4c5[n+](ccc4c3c2)-c2ccccc2C5=O)cc1.[Cl-] | 0.195 µg/mL | > 200 µg/mL | – | 0.195 µg/mL | – | > 200 µg/mL | 0.78 µg/mL | 25 µg/mL | – | – | – | –
